Key:
outbred male mice = test: rotarod test (myorelaxant activity); type: in vivo; details: for time of remaining on the rotarod: cut-off 120 sec
Description: The myorelaxant activity of choosen compounds were studied in the outbred male mice weighing 22-25 g in rotarod test [Voronina T. A. et al., in: “Phenazepam”, Naukova Dumka, Kiev, 1982, p.145]. The animals were placed on the horizontal rotarod (D=2 cm) calibrated for a fixed speed of 4 rpm. According to the rotarod experimental protocol, normal motor coordination was defined by the ability of the animals to remain on the rotarod for an arbitrarily selected time of 120 sec.

male outbred mice = test: potentiation of sleep induced by sodium thiopental; type: in vivo
Description: The possible hypnotic effects of choosen drugs was estimated according to method of potentiation of sleep induced by sodium thiopental. The male outbred mice weighing 20-25 g were injected i.p. with sodium thiopental at dose of 70 mg/kg. Two parameters were estimated: latent time of sleeping and duration of sleep. The used compounds were administered i.p. 30 min prior injection of sodium thiopental.

[1] = acute toxicity after per os administration; details: mouse, in vivo, oral; outbred mice, per os, 1% starch suspension, Litchfield-Wilcocson
Description: (§1) The acute toxicity was measured in outbred mice after per os administration of used drugs in the 1% starch suspension. The lethal doses were calculated according to Litchfield-Wilcocson' method. […].

outbred mice = test: acute toxicity after per os administration; details: mouse, in vivo
Description: as §1

[2] = 0.01 mg/kg i.p. 30 min before thiopental 70 mg/kg i.p.
[3] = 0.1 mg/kg i.p. 30 min before thiopental 70 mg/kg i.p.
[4] = 1.0 mg/kg i.p. 30 min before thiopental 70 mg/kg i.p.
[5] = 5.0 mg/kg i.p. 30 min before thiopental 70 mg/kg i.p.
[6] = 10.0 mg/kg i.p. 30 min before thiopental 70 mg/kg i.p.

CCOc1ccc2nc(SCCN3CCOCC3)[nH]c2c1 [XII, 2-[2-(Morpholino)ethylthio]-5-ethoxybenzimidazole]
time of remaining on the rotarod (outbred male mice; 0.01 mg/kg): 120.0 + 0 sec | time of remaining on the rotarod (outbred male mice; 0.1 mg/kg): 120.0 + 0 sec | time of remaining on the rotarod (outbred male mice; 1.0 mg/kg): 120.0 + 0 sec | time of remaining on the rotarod (outbred male mice; 5.0 mg/kg): 120.0 + 0 sec | time of remaining on the rotarod (outbred male mice; 10.0 mg/kg): 120.0 + 0 sec | time of remaining on the rotarod (outbred male mice; 20.0 mg/kg): 118.8 ± 1.6 s | time of remaining on the rotarod (outbred male mice; 50.0 mg/kg): 111.3 ± 7.5 s | effect on motor coordination in rotarod test, in words (outbred male mice; dose range 0,01 mg/kg-50 mg/kg): no effect on the motor coordination | duration of sleep after sodium thiopental (male outbred mice; [2]): 76.4 ± 16.7 min | latent time of sleep after sodium thiopental (male outbred mice; [2]): 1.86 ± 0.27 s | duration of sleep after sodium thiopental (male outbred mice; [3]): 54.5 ± 9.9 min | latent time of sleep after sodium thiopental (male outbred mice; [3]): 1.94 ± 0.18 s | duration of sleep after sodium thiopental (male outbred mice; [4]): 67.9 ± 4.3 min | latent time of sleep after sodium thiopental (male outbred mice; [4]): 2.78 ± 0.17 s | duration of sleep after sodium thiopental (male outbred mice; [5]): 71.7 ± 14.6 min | latent time of sleep after sodium thiopental (male outbred mice; [5]): 2.21 ± 0.17 s | duration of sleep after sodium thiopental (male outbred mice; [6]): 92.4 ± 9.9 min | latent time of sleep after sodium thiopental (male outbred mice; [6]): 2.28 ± 0.24 s | LD50 [1]: 1160 mg/kg | toxicity, conclusion in words (outbred mice): not toxic
